# Measured values from patent publication US7847132B2, “Hepatic fibrosis inhibitor” (Nippon Hypox Laboratories Incorporated, priority 2008, dated 2010).
# Marks after values point to notes of the source that are not given here.
# Columns and labels:
# [1] = system: rat model with carbon tetrachloride-induced liver cirrhosis; test: Rat model with carbon tetrachloride-induced liver cirrhosis, Experimental Example 1 (compound 1 0.3 mg/mL in potable water); format: in vivo
# Procedure: (§1) To six-week-old Wister male rats, 3 mL/kg of olive oil containing 40% of carbon tetrachloride or olive oil only were subcutaneously administered twice per week for eight weeks. On a parallel with the administration of the carbon tetrachloride, potable water in which 2,3,5-trimethyl hydroquinone-1-hexylether (compound 1) of the hydroquinone derivative identified by the aforementioned general chemical formula (1) is dissolved at a concentration of 0.3 mg/mL was given to one group of rats daily. Simultaneously, to another groups of rats, only water was given.
# (§2) There were adopted four animal groups, i.e. olive oil administration group, olive oil-plus-compound 1 administration group, carbon tetrachloride administration group, and carbon tetrachloride-plus-compound 1 administration group, in the experimental example. Each group consists of ten animals. The animals were slaughtered eight weeks after start of administration of the carbon tetrachloride to carry out an examination. The examination items include ELISA measurement of the serum antibody valency of Naofen and RT-PCR measurement of the mRNA-expression level of Naofen in the liver.
# [2] = system: rat model with carbon tetrachloride-induced liver cirrhosis; test: Rat model with carbon tetrachloride-induced liver cirrhosis, Experimental Example 2 (compound 1 0.1 mg/mL in potable water); format: in vivo; conditions: for HA / ALB / ALT / AST / T-Bil: blood; for HA / ALB / ALT / AST / T-Bil / Body weight / Hepatic relative weight / Pancreatic relative weight / Number of animals with ascites retention: n = 10
# Procedure: as §1, §2
# An experimental examination was carried out with a rat model with carbon tetrachloride-induced liver cirrhosis in the same manner as the aforementioned experimental Example 1 except for use of the compound 1 with a concentration of 0.1 mg/mL. The examination includes measurements of some hepatic damage indexes such as blood AST, ALT, albumin (ALB) and total bilirubin (T-Bil), measurement of hyaluronan (HA) concentration serving as a maker of hepatic fibrosis, autopsy finding, measurements of body weight and organ weight, measurements of expression levels of TGF-β1 mRNA and type-I collagen mRNA in biologic cells by RT-PCR, and a histopathologic inspection.
# The examination results of measurements of the liver weight, spleen weight, and number of animals with ascites retention are shown in Table 3. FIGS. 4 and 5 are photographs of hepatic tissues taken by using a Masson staining method and an immunohistochemical staining method (A: olive oil administration case, B: carbon tetrachloride administration case, C: olive oil-plus-compound 1 administration case, and D: carbon tetrachloride-plus-compound 1 administration case; and horizontal line on the bottom right: 100 μm).
# [3] = HX (+) group, 0.3 mg/mL in potable water, 8 weeks, total 7 animals
# [4] = CCl4 + Compound 1 0.1 mg/mL in potable water, 8 weeks, mean ± SD
# [5] = CCl4 + compound 1 0.1 mg/mL, result in words
# [6] = Olive Oil + Compound 1 0.1 mg/mL in potable water, 8 weeks, mean ± SD
# [7] = Olive Oil + Compound 1 0.1 mg/mL in potable water, 8 weeks
smiles,measurement,setting,value
"CCCCCCOc1cc(C)c(O)c(C)c1C [Compound 1, 2,3,5-trimethyl hydroquinone-1-hexylether]",increase in mRNA-expression level of Naofen in the liver (RT-PCR),"[1]; CCl4 + compound 1 0.3 mg/mL in potable water, weeks 6(+), weeks 8(+), FIG. 1",suppressed
same,number of animals with serum antibody valency of Naofen 4 < V < 16 (ELISA),[1]; [3],1
same,number of animals with serum antibody valency of Naofen V <= 4 (ELISA),[1]; [3],4
same,number of animals with serum antibody valency of Naofen V >= 16 (ELISA),[1]; [3],2
same,abnormality in olive oil-plus-compound 1 administration group,"[1]; olive oil + compound 1 0.3 mg/mL in potable water, 8 weeks",no appreciable abnormality
same,"antibody valency increase more than 16 times, compound 1 group (+) versus group (−), Fischer direct probability","[1]; serum antibody valency of Naofen, 0.3 mg/mL in potable water",significantly fewer
same,HA,"[2]; CCl4 + Compound 1 0.1 mg/mL in potable water, 8 weeks, marker of hepatic fibrosis, mean ± SD",237.7 ± 36.6*^+ ng/mL
same,ALB,[2]; [4],3.8 ± 0.2*^+ g/dL
same,ALT,[2]; [4],422.4 ± 60.5**^++ IU/L
same,AST,[2]; [4],603.6 ± 126.3**^++ IU/L
same,T-Bil,[2]; [4],0.03 ± 0.02^+ mg/dL
same,Body weight,[2]; [4],240.8 ± 8.7 g
same,Hepatic relative weight,[2]; [4],16.1 ± 1.8^+ g (per 100 grams of body weight)
same,Pancreatic relative weight,[2]; [4],0.28 ± 0.01^+ g (per 100 grams of body weight)
same,Number of animals with ascites retention,"[2]; CCl4 + Compound 1 0.1 mg/mL in potable water, 8 weeks",1
same,increase in TGF-β1 mRNA-expression level in the liver (RT-PCR),"[2]; CCl4 + compound 1 0.1 mg/mL, FIG. 2",suppressing increase
same,increase in type-I collagen mRNA-expression level in the liver (RT-PCR),"[2]; CCl4 + compound 1 0.1 mg/mL, FIG. 3",suppressing increase
same,"accumulation of fibrous tissue (histopathologic inspection, Masson staining)","[2]; CCl4 + compound 1 0.1 mg/mL, hepatic tissue, FIG. 4",suppressed
same,"expression of TGF-β1 (histopathologic inspection, immunohistochemical staining)","[2]; CCl4 + compound 1 0.1 mg/mL, hepatic tissue, FIG. 5",suppressed
same,increase in ALT due to administration of carbon tetrachloride,[2]; [5],suppressing increase
same,increase in AST due to administration of carbon tetrachloride,[2]; [5],suppressing increase
same,increase in hyaluronan concentration due to administration of carbon tetrachloride,[2]; [5],suppressing increase
same,ALB,[2]; [6],4.3 ± 0.1 g/dL
same,ALT,[2]; [6],93.7 ± 34.1 IU/L
same,AST,[2]; [6],192.7 ± 93.4 IU/L
same,HA,[2]; [6],136.7 ± 16.6 ng/mL
same,T-Bil,[2]; [7],0 mg/dL
same,Body weight,[2]; [6],361.5 ± 1.5 g
same,Hepatic relative weight,[2]; [6],14.8 ± 1.5 g (per 100 grams of body weight)
same,Pancreatic relative weight,[2]; [6],0.20 ± 0.01 g (per 100 grams of body weight)
same,Number of animals with ascites retention,[2]; [7],0
same,abnormality in olive oil-plus-compound 1 administration group,"[2]; olive oil + compound 1 0.1 mg/mL in potable water, 8 weeks",no appreciable abnormality
